Laboratory results taken from paper PMC7818921, “Synthesis and biological evaluation of heterocyclic 1,2,4-triazole scaffolds as promising pharmacological agents” (BMC Chemistry, 2021).
Values after ≈ are worked out from the molar mass of the structure shown. Values joined by “and” are separate entries in the source; they are usually repeats but may differ in a detail not shown here. Equal values may be shown once. Read-outs that look alike come from different tables or passages of the source.

Experiments:
[1] = biological target: Jack Bean Urease (Canavalia ensiformis, UniProt P07374); test: biochemical; conditions: for % inhibition: urease
Method: Urease inhibitory potential for each synthesisized compound (T1–T20) was evaluated using Jack Bean Urease by Indophenol method (Table 5, Figs. 9, 10, 11). 250 µl of jack bean urease (4U) was mixed with 250 µl of different synthesized test compounds and standard of different concentrations [dissolved in DMSO/H2O mixture (1:1 v/v)]. The mixture was pre-incubated for 1 h at 37 °C in test tubes. 2 ml of 100 mM phosphate buffer (pH 6.8) containing 500 mM urea and 0.002% phenol red as an indicator were added in sample test tubes after pre incubation and again incubated at room temperature. Absorbance of reaction mixture was recorded by ELISA at 570 nm. Ammonium carbonate increased the pH of phosphate buffer from 6.8 to 7.7 which was produced from urea by urease enzyme and the end peak was measured by the colour of phenol red indicator [16].
The percentage inhibition of urease enzyme was calculated by using following formula: I%=Acontrol-Asample/Acontrol×100,
where Acontrol is the absorbance of the control; Asample is the absorbance of the test compound.

[2] = DPPH free radical scavenging activity; conditions: for IC50: DPPH antioxidant; for % inhibition: DPPH
Method: In the DPPH free radical scavenging activity, compounds (T1–T20) were evaluated for their free radical scavenging activity with ascorbic acid as standard compound. The scavenging effect increased with the increasing concentrations of sample compounds. DPPH is relatively stable nitrogen centered free radical that easily accepts an electron or hydrogen radical to become a stable diamagnetic molecule. DPPH radicals react with suitable reducing agents as a result of which the electrons become paired off forming the corresponding hydrazine. The solution therefore loses colour stoichometrically depending on the number of electrons taken up. […] The sample solutions were incubated for 30 min at room temperature in dark place and after then absorbance was recorded against the blank solution at 517 nm. The relative percent of DPPH scavenging activity was calculated according to the following equation: I%=Acontrol-Asample/Acontrol×100,
where Acontrol is the absorbance of the control, Asample is the absorbance of the test compound.

[3] = test system: HCT116 (human colon cancer cells); test: Anticancer evaluation, SRB assay; assay type: cell-based
Method: HCT116 (human colon cancer cells) were seeded at 2500 cells/well (96 well plate), allowed to attach overnight, exposed to the respective compounds for 72 h and subjected to SRB assay (570 nm). Data represent mean IC50 of at least triplicates. The compounds were all dissolved in DMSO as stock of 100 mg/ml. […] The highest concentration of each compound tested (100 μg/ml) contained only 0.1% DMSO.

[4] = test system: Escherichia coli; test: In vitro antimicrobial screening, tube dilution method; assay type: cell-based; conditions: E. coli, Gram −ve, nutrient broth, 37 ± 1 °C, 24 h, read-out: Minimum inhibitory concentration
Method: (§1) The in vitro antimicrobial screening of the synthesized 1,2,4-triazole derivatives (T1–T20) in μM was determined against Gram-positive Bacillus subtilis, […], Gram-negative Escherichia coli bacterium and fungal strains Candida albicans and Aspergillus niger by tube dilution method using ciprofloxacin, amoxycillin (antibacterial) and fluconazole (antifungal) as reference drugs. DMSO was used to dissolve the reference and sample derivatives (T1–T20). Dilutions were prepared in nutrient broth (I.P.) for bacterial (incubated at 37 ± 1 °C for 24 h) and Sabouraud dextrose broth (I.P.) for fungal species (37 ± 1 °C for 48 h for C. albicans) and (25 ± 1 °C for 7 days for A. niger) (Table 3, Figs. 4 and 5).

[5] = test system: Pseudomonas aeruginosa; test: as above; assay type: cell-based; conditions: P. aeruginosa, Gram −ve, nutrient broth, 37 ± 1 °C, 24 h, read-out: Minimum inhibitory concentration
Method: as §1

[6] = test system: Bacillus subtilis; test: as above; assay type: cell-based; conditions: B. substilis, Gram +ve, nutrient broth, 37 ± 1 °C, 24 h, read-out: Minimum inhibitory concentration
Method: as §1

[7] = test system: Aspergillus niger; test: In vitro antifungal screening, tube dilution method; assay type: cell-based; conditions: A. niger, Sabouraud dextrose broth, 25 ± 1 °C, 7 days, read-out: Minimum inhibitory concentration
Method: as §1

[8] = test system: Candida albicans; test: as above; assay type: cell-based; conditions: C. albican, Sabouraud dextrose broth, 37 ± 1 °C, 48 h, read-out: Minimum inhibitory concentration
Method: as §1

[9] = Homo sapiens, HCT-116, HCT116, 72 h, SRB, mean of at least triplicates
[10] = HCT116, 72 h, SRB, mean of at least triplicates

Sequence of Jack Bean Urease (P07374 whole entry, looked up): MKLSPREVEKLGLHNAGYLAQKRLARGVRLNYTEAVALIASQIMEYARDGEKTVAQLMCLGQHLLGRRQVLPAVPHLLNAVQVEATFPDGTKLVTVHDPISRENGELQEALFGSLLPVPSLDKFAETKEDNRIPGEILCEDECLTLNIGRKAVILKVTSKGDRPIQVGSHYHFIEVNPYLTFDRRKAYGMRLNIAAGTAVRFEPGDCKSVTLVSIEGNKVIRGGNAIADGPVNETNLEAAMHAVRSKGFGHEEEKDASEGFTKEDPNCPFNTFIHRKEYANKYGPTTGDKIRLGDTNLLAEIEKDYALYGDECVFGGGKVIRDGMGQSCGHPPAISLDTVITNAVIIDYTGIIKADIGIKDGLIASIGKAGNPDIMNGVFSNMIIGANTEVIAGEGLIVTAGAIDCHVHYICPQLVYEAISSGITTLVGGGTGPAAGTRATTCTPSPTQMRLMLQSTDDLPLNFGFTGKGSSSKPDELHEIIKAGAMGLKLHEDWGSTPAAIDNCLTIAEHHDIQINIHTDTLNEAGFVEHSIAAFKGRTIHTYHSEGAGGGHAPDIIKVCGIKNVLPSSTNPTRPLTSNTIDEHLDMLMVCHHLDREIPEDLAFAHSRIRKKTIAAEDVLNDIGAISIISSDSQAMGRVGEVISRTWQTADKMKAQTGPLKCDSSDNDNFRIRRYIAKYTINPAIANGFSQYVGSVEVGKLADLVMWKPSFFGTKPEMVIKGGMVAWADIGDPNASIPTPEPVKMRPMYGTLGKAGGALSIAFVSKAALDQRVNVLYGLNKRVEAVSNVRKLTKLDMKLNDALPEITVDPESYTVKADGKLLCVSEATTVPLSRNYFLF

| Compound | IC50 [1] [µM] | inhibition at 25 µg/mL [1] [%] | inhibition at 50 µg/mL [1] [%] | inhibition at 75 µg/mL [1] [%] | inhibition at 100 µg/mL [1] [%] | IC50 [2] [µg/mL] | % inhibition ([2]; 25 µg/ml) [%] | % inhibition ([2]; 50 µg/ml) [%] | % inhibition ([2]; 75 µg/ml) [%] | % inhibition ([2]; 100 µg/ml) [%] | IC50 [3, 9] [µM] | MIC ([4]; Escherichia coli) [µM] | MIC ([5]; Pseudomonas aeruginosa) [µM] | MIC ([6]; Bacillus subtilis) [µM] | melting point [°C] | MIC ([7]; Aspergillus niger, 168 h) [µM] | MIC ([8]; Candida albicans) [µM] | also measured |
| --- | --- | --- | --- | --- | --- | --- | --- | --- | --- | --- | --- | --- | --- | --- | --- | --- | --- | --- |
| CCCCCCCCCCCCCCCc1nnc(S)n1N=Cc1ccccc1[N+](=O)[O-] [Compound T15] | 133 | 29 | 37.1 | 61.8 | 73.1 | 47.99 (≈ 104 µM) | 38.56 | 50.64 | 62.16 | 80.56 | > 218 | 218 (≈ 100 µg/mL) | 109 (≈ 50 µg/mL) | 54.3 (≈ 25 µg/mL) | 195 to 198 | 54.3 (≈ 25 µg/mL) | 218 (≈ 100 µg/mL) |  |
| OC(Cn1cncn1)(Cn1cncn1)c1ccc(F)cc1F [Fluconazole, reference compound] |  |  |  |  |  |  |  |  |  |  |  |  |  |  |  | 20.4 (≈ 6.25 µg/mL) | 40.8 (≈ 12.5 µg/mL) |  |
| CCCCCCCCCCCCCCCc1nnc(S)n1N=Cc1cc(OC)c(OC)c(OC)c1 [Compound T5] | 108 | 23.3 | 44.4 | 70.9 | 90.9 | 39.13 (≈ 77.5 µM) | 42.34 | 55.67 | 68.98 | 78.12 | > 198 | 24.7 (≈ 12.5 µg/mL) | 12.3 (≈ 6.21 µg/mL) | 24.7 (≈ 12.5 µg/mL) |  | 99 (≈ 50 µg/mL) | 12.3 (≈ 6.21 µg/mL) | MIC [7]: 99.0 µM (≈ 50 µg/mL) |
| CCCCCCCCCCCCCCCc1nnc(S)n1N=Cc1ccc(OC)c(OC)c1 [Compound T4] | 106 | 35.5 | 49.5 | 63.7 | 79.5 | 37.50 (≈ 79 µM) | 38.45 | 58.34 | 88.61 | 98.89 | 7.79 | 105 (≈ 50 µg/mL) | 52.6 (≈ 25 µg/mL) | 52.6 (≈ 25 µg/mL) | 188 to 191 | 105 (≈ 50 µg/mL) | 52.6 (≈ 25 µg/mL) |  |
| CCCCCCCCCCCCCCCc1nnc(S)n1N=Cc1ccc([N+](=O)[O-])cc1 [Compound T17] | 125 | 37.9 | 42.4 | 57.6 | 71.4 |  | 48.75 | 62.57 | 78.16 | 84.61 | > 218 | 218 (≈ 100 µg/mL) | 218 (≈ 100 µg/mL) | 54.3 (≈ 25 µg/mL) | 206 to 209 | 27.1 (≈ 12.5 µg/mL) | 109 (≈ 50 µg/mL) |  |
| CCCCCCCCCCCCCCCc1nnc(S)n1N=Cc1cccc([N+](=O)[O-])c1 [Compound T16] | 115 | 45.8 | 49.1 | 53.9 | 59.1 | 41.30 (≈ 89.8 µM) | 43.65 | 51.45 | 67.26 | 81.76 | 169 | 218 (≈ 100 µg/mL) | 109 (≈ 50 µg/mL) | 109 (≈ 50 µg/mL) | 199 to 202 | 218 (≈ 100 µg/mL) | 218 (≈ 100 µg/mL) |  |
| CCCCCCCCCCCCCCCc1nnc(S)n1N=Cc1ccc(C)cc1 [Compound T3] | 126 | 28.2 | 50 | 65.9 | 79.1 | 34.38 (≈ 80.2 µM) | 43.56 | 60.12 | 75.67 | 88.98 | 16.6 | 117 (≈ 50 µg/mL) | 58.3 (≈ 25 µg/mL) | 58.3 (≈ 25 µg/mL) | 190 to 193 | 117 (≈ 50 µg/mL) | 233 (≈ 100 µg/mL) |  |
| O=c1[nH]cc(F)c(=O)[nH]1 [Compound 5-FU, Fluorouracil, reference compound] |  |  |  |  |  |  |  |  |  |  | 25.4 |  |  |  |  |  |  | IC50 ([3]; Homo sapiens, HCT-116, HCT116, value given in dose-response figure): 3.3 µg/mL |
| NC(N)=S [Thiourea, reference compound] |  |  |  |  |  |  |  |  |  |  |  |  |  |  |  |  |  | IC50 ([1]; urease inhibition): 54.25 µg/mL; % inhibition ([1]; 25 µg/ml): 29.98%; % inhibition ([1]; 50 µg/ml): 46.76%; % inhibition ([1]; 75 µg/ml): 67.78%; % inhibition ([1]; 100 µg/ml): 76.78% |
| CCCCCCCCCCCCCCCc1nnc(S)n1N=Cc1c(O)ccc2ccccc12 [Compound T18] |  |  |  |  |  |  | 39.59 | 68.57 | 80.13 | 95.89 |  |  |  |  |  |  |  | IC50 ([1]; urease inhibition): 54.30 µg/mL; % inhibition ([1]; 25 µg/ml): 40.90%; % inhibition ([1]; 50 µg/ml): 46.79%; % inhibition ([1]; 75 µg/ml): 55.89%; % inhibition ([1]; 100 µg/ml): 67.9%; IC50 [3, 10]: > 208 µM; MIC [4]: 104.0 µM (≈ 50 µg/mL); MIC [5]: 52.0 µM (≈ 25 µg/mL); MIC [6]: 104.0 µM (≈ 50 µg/mL); MIC [7]: 104 µM and 104.0 µM; MIC [8]: 208 µM and 208.0 µM |
| CCCCCCCCCCCCCCCc1nnc(S)n1N=Cc1ccc(N(C)C)cc1 [Compound T9] |  | 33.5 | 53.7 | 70.5 | 92.7 | 35.42 (≈ 77.4 µM) | 40.56 | 60.67 | 83.61 | 92.16 | > 218 | 54.6 (≈ 25 µg/mL) | 27.3 (≈ 12.5 µg/mL) | 54.6 (≈ 25 µg/mL) | 198 to 201 | 218 (≈ 100 µg/mL) | 109 (≈ 50 µg/mL) |  |
| CCCCCCCCCCCCCCCc1nnc(S)n1N=Cc1ccc(Br)cc1 [Compound T14] | 136 | 41.7 | 46.2 | 50.5 | 57.8 | 37.52 (≈ 76 µM) | 37.56 | 60.68 | 85.79 | 95.61 | 128 | 101 (≈ 50 µg/mL) | 101 (≈ 50 µg/mL) | 50.6 (≈ 25 µg/mL) | 193 to 196 | 101 (≈ 50 µg/mL) | 203 (≈ 100 µg/mL) |  |
| CCCCCCCCCCCCCCCc1nnc(S)n1N=Cc1ccco1 [Compound T20] |  |  |  |  |  | 46.34 (≈ 115 µM) | 33.45 | 53.67 | 70.46 | 92.67 |  |  |  |  |  |  |  | IC50 ([1]; urease inhibition): 52.34 µg/mL; % inhibition ([1]; 25 µg/ml): 28.98%; % inhibition ([1]; 50 µg/ml): 49.09%; % inhibition ([1]; 75 µg/ml): 69.09%; % inhibition ([1]; 100 µg/ml): 81.90%; IC50 [3, 10]: > 247 µM; MIC [4]: 61.7 µM (≈ 25 µg/mL); MIC [5]: 123.5 µM (≈ 50 µg/mL); MIC [6]: 61.7 µM (≈ 25 µg/mL); MIC [7]: 247.1 µM (≈ 100 µg/mL); MIC [8]: 247.1 µM (≈ 100 µg/mL) |
| O=C1O[C@H]([C@@H](O)CO)C(O)=C1O [Ascorbic acid, reference compound] |  |  |  |  |  | 35.44 (≈ 201 µM) | 38.67 | 63.68 | 84.78 | 94.45 |  |  |  |  |  |  |  |  |
